How the values were obtained:
[1] = tested on: common pursiane; assay: Test D common purslane; format: in vivo, Portulaca oleracea; details: Preemergence, 0 to 100 scale
In short: (§1)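 Each weed species is planted in its own pot or compartment; preemergence doses go on the sandy loam surface within a day. The formulation is a surfactant-containing, non-phytotoxic solvent blend. Ratings come from visual comparison with untreated controls 14 to 21 days later, where 100 means complete control.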

[2] = tested on: common ragweed; assay: Test D common ragweed; format: in vivo, Ambrosia elatior; details: Preemergence, 0 to 100 scale
Description: (§2) Seeds, tubers, or plant parts of Alexandergrass (Brachiaria plantaginea), bermuda-grass (Cynodon dactylon), common pursiane (Portulaca oleracea), common ragweed (Ambrosia elatior), common groundsel (Senecio vulgaris), dallisgrass (Paspalum dilatatum), goosegrass (Eleusine indica), guineagrass (Panicum maximum), itchgrass (Rottboellia exaltata), Johnson grass (Sorghum halepense), large crabgrass (Digitaria sanguinalis), pitted morningglory (Ipomoea lacunosa), purple nutsedge (Cyperus rotundus), sandbur (Cenchrus echinatus), sourgrass (Trichachne insularis), Spanishneedles (Bidens bipinnata), surinam grass (Brachiaria decumbens) and tall mallow (Malva sylvestris) were planted into greenhouse pots of flats containing greenhouse planting medium. Plant species were grown in separate pots or individual compartments. Preemergence applications were made within one day of planting the seed or plant part.
(§3) Test chemicals were formulated in a non-phytotoxic solvent mixture which included a surfactant and applied preemergence to the surface of the pot containing seeds in a sandy loam soil. Untreated control pots and treated pots were placed in the greenhouse for growth and visually evaluated for injury 14 to 21 days after herbicide application. Plant response ratings, summarized in Table C, are based on a 0 to 100 scale where 0 is no injury and 100 is complete control. A dash (−) response means no test result.

[3] = tested on: dallisgrass; assay: Test D dallisgrass; format: in vivo, Paspalum dilatatum; details: Preemergence, 0 to 100 scale
Description: as §2, §3

[4] = tested on: goosegrass; assay: Test D goosegrass; format: in vivo, Eleusine indica; details: Preemergence, 0 to 100 scale
Description: as §2, §3

[5] = tested on: guineagrass; assay: Test D guineagrass; format: in vivo, Panicum maximum; details: Preemergence, 0 to 100 scale
Description: as §2, §3

[6] = tested on: itchgrass; assay: Test D itchgrass; format: in vivo, Rottboellia exaltata; details: Preemergence, 0 to 100 scale
In short: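 Scoring used a 0–100 visual injury scale, with 0 meaning no effect and 100 complete control, assessed 14–21 days after application alongside untreated pots. Preemergence treatments went onto sandy loam surfaces of separately potted seeds within a day of sowing.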

[7] = tested on: Johnson grass; assay: Test D Johnson grass; format: in vivo, Sorghum halepense; details: Preemergence, 0 to 100 scale
In short: as §1

[8] = tested on: large crabgrass; assay: Test D large crabgrass; format: in vivo, Digitaria sanguinalis; details: Preemergence, 0 to 100 scale
In short: as §1

[9] = tested on: pitted morningglory; assay: Test D pitted morningglory; format: in vivo, Ipomoea lacunosa; details: Preemergence, 0 to 100 scale
Description: as §2
Test chemicals were formulated in a non-phytotoxic solvent mixture which included a surfactant and applied preemergence to the surface of the pot containing seeds in a sandy loam soil. Untreated control pots and treated pots were placed in the greenhouse for growth and visually evaluated for injury 14 to 21 days after herbicide application. […] A dash (−) response means no test result.

[10] = tested on: purple nutsedge; assay: Test D purple nutsedge; format: in vivo, Cyperus rotundus; details: Preemergence, 0 to 100 scale
In short: as §1

[11] = tested on: sandbur; assay: Test D sandbur; format: in vivo, Cenchrus echinatus; details: Preemergence, 0 to 100 scale
In short: as §1

[12] = tested on: Spanishneedles; assay: Test D Spanishneedles; format: in vivo, Bidens bipinnata; details: Preemergence, 0 to 100 scale
Description: as §2, §3

[13] = tested on: surinam grass; assay: Test D surinam grass; format: in vivo, Brachiaria decumbens; details: Preemergence, 0 to 100 scale
Description: as §2, §3

[14] = tested on: tall mallow; assay: Test D tall mallow; format: in vivo, Malva sylvestris; details: Preemergence, 0 to 100 scale
In short: as §1

[15] = tested on: Green foxtail; assay: Test D green foxtail; format: in vivo; details: Preemergence, 0 to 100 scale
In short: as §1

[16] = tested on: Green foxtail; assay: Test D green foxtail; format: in vivo
Description: as §2, §3

[17] = Rate 16 g/ha, 0 no injury, 100 complete control
[18] = Rate 32 g/ha, 0 no injury, 100 complete control
[19] = Rate 64 g/ha, 0 no injury, 100 complete control
[20] = Rate 125 g/ha, 0 no injury, 100 complete control
[21] = Rate 64 g/ha, Preemergence; 0 to 100 scale, 0 no injury, 100 complete control
[22] = Rate 125 g/ha, Preemergence; 0 to 100 scale, 0 no injury, 100 complete control

CC(C)N(C(=O)n1oc(=O)n(C2CC2)c1=O)c1ccc(F)cc1 [Compound 242]
75: Plant response rating, Goosegrass [4, 17]
98: Plant response rating, Dallisgrass [3, 19] | Plant response rating, Dallisgrass [3, 20] | Plant response rating, Guineagrass [5, 19] | Plant response rating, Itchgrass ([6]; Rate 250 g/ha) | Plant response rating, Johnsongrass ([7]; Rate 250 g/ha)
85: Plant response rating, Dallisgrass [3, 18] | Plant response rating, Goosegrass [4, 18] | Plant response rating, Guineagrass [5, 18] | Plant response rating, Johnsongrass [7, 20] | Plant response rating, Surinam grass [13, 18] | Surinam grass plant response rating [13, 19] | Plant response rating, Tall Mallow ([14]; Rate 500 g/ha)
100: Plant response rating, C. ragweed [2, 17] | Plant response rating, C. ragweed [2, 18] | Plant response rating, C. ragweed [2, 19] | Plant response rating, C. ragweed [2, 20] | Plant response rating, C. ragweed ([2]; Rate 250 g/ha) | Plant response rating, C. ragweed ([2]; Rate 500 g/ha) | Plant response rating, Dallisgrass ([3]; Rate 250 g/ha) | Plant response rating, Dallisgrass ([3]; Rate 500 g/ha) | Plant response rating, Goosegrass [4, 20] | Plant response rating, Goosegrass ([4]; Rate 250 g/ha) | Plant response rating, Goosegrass ([4]; Rate 500 g/ha) | Plant response rating, Guineagrass [5, 20] | Plant response rating, Guineagrass ([5]; Rate 250 g/ha) | Plant response rating, Guineagrass ([5]; Rate 500 g/ha) | Plant response rating, Itchgrass ([6]; Rate 500 g/ha) | Plant response rating, Johnsongrass ([7]; Rate 500 g/ha) | Plant response rating, Large crabgrass [8, 18] | Plant response rating, Large crabgrass [8, 19] | Plant response rating, Large crabgrass [8, 20] | Plant response rating, Large crabgrass ([8]; Rate 250 g/ha) | Plant response rating, Large crabgrass ([8]; Rate 500 g/ha) | Plant response rating, P. morninglory ([9]; Rate 500 g/ha) | Plant response rating, Sandbur ([11]; Rate 250 g/ha) | Plant response rating, Sandbur ([11]; Rate 500 g/ha) | Plant response rating, Surinam grass ([13]; Rate 250 g/ha) | Plant response rating, Surinam grass ([13]; Rate 500 g/ha) | Plant response rating, Green foxtail ([15]; Rate 250 g/ha) | Plant response rating, Green foxtail ([15]; Rate 500 g/ha) | Plant response rating, Green foxtail ([16]; Preemergence; Rate 32 g/ha; 0 to 100 scale, 0 no injury, 100 complete control) | Green foxtail plant response rating [16, 21] | Plant response rating, Green foxtail [16, 21] | Green foxtail plant response rating [16, 22] | Plant response rating, Green foxtail [16, 22] | Plant response rating, Green foxtail ([16]; Rate 250 g/ha; Preemergence; 0 to 100 scale) | Plant response rating, Green foxtail ([16]; Rate 500 g/ha, Preemergence; 0 to 100 scale)
95: Plant response rating, Goosegrass [4, 19]
65: Plant response rating, Dallisgrass [3, 17] | Plant response rating, Itchgrass [6, 17] | Plant response rating, Itchgrass [6, 18]
10: Plant response rating, Johnsongrass [7, 17] | Plant response rating, P. morninglory [9, 19] | Spanishneedles plant response rating [12, 20] | Plant response rating, Spanishneedles ([12]; Rate 250 g/ha)
70: Plant response rating, Guineagrass [5, 17] | Plant response rating, Itchgrass [6, 19]
20: Plant response rating, P. morninglory [9, 20] | Plant response rating, P. morninglory ([9]; Rate 250 g/ha) | Plant response rating, Surinam grass [13, 17]
60: Plant response rating, Purple nutsedge ([10]; Rate 250 g/ha) | Plant response rating, Purple nutsedge ([10]; Rate 500 g/ha) | Plant response rating, Tall Mallow ([14]; Rate 250 g/ha)
40: Plant response rating, Johnsongrass [7, 18] | Plant response rating, Johnsongrass [7, 19] | Purple nutsedge plant response rating [10, 20] | Plant response rating, Spanishneedles ([12]; Rate 500 g/ha)
0: Plant response rating, C. purslane [1, 17] | Plant response rating, C. purslane [1, 18] | Plant response rating, C. purslane [1, 19] | Plant response rating, C. purslane [1, 20] | Plant response rating, C. purslane ([1]; Rate 250 g/ha) | Plant response rating, C. purslane ([1]; Rate 500 g/ha) | Plant response rating, P. morninglory [9, 17] | Plant response rating, P. morninglory [9, 18] | Plant response rating, Purple nutsedge [10, 17] | Plant response rating, Purple nutsedge [10, 18] | Purple nutsedge plant response rating [10, 19] | Plant response rating, Sandbur [11, 17] | Plant response rating, Sandbur [11, 18] | Sandbur plant response rating [11, 19] | Plant response rating, Spanishneedles [12, 17] | Plant response rating, Spanishneedles [12, 18] | Spanishneedles plant response rating [12, 19] | Plant response rating, Tall Mallow [14, 17] | Plant response rating, Tall Mallow [14, 18] | Tall Mallow plant response rating [14, 19] | Tall Mallow plant response rating [14, 20]
90: Plant response rating, Large crabgrass [8, 17] | Sandbur plant response rating [11, 20] | Surinam grass plant response rating [13, 20]
80: Plant response rating, Itchgrass [6, 20] | Plant response rating, Green foxtail ([16]; Preemergence; Rate 16 g/ha; 0 to 100 scale, 0 no injury, 100 complete control) | Plant response rating, Green foxtail ([16]; Rate 16 g/ha; Preemergence; 0 to 100 scale, 0 no injury, 100 complete control)

From patent US6737383B1, “Herbicidal oxadiazolidines” (priority 1999, dated 2004)
